Reference: patent US12180526B2, “Subterranean microalgae for production of microbial biomass, substances, and compositions” (Kuehnle AgroSystems, Inc., priority 2019, dated 2024)

Test: DPPH Radical Scavenging Activity
Conditions: DPPH 0.06 mM in methanol
Description: Extraction and isolation of C-PC are carried out as is known in the art (Wu et al. 2016) using commercial grade biomass from a source in Hawaii. The C-PC is then further purified by ultrafiltration using a 10 kDa membrane to obtain an absorbance ratio of A620/A280 of 1.4 and stored frozen as a lyophilized powder. For testing, powder is solubilized in phosphate-citrate buffer to 0.4 mg/mL. Samples are tested for thermal stability at 65° C. for 30 minutes, at pH 6.0, per Example 3. The addition of EPS at a concentration of 1% (w/v; produced from resolubilized lyophilized powder with no added grinding) results in a reduction of the CR value by 13% compared to the control lacking stabilizing agents after exposure to 65° C. for 30 min at pH 6.0. This indicates added stabilization, which can likely be optimized with additional testing. Antioxidant capacity is measured using the DPPH Radical Scavenging Activity as is known in the art (Alam et al. 2013), with the modification of using DPPH (1,1-diphenyl-2-picrylhydrazyl; Sigma-Aldrich D9132) in methanol (0.06 mM), and readings taken on a Biotek Synergy HTX multi-mode microplate reader.

phycocyanin
antioxidant activity IC50: 1800 µg/mL
